Literature values, collected in US8207376B2, “Method for producing amino acid phosphates” (priority 2006, dated 2012).

How the values were obtained:
[1] = heating; known property
[2] = as reported in JP-A-2006-182753
[3] = as reported in JP-A-2006-182753; remark: listed apart in the source

Compound: Cl.NCC(=O)CCC(=O)O [δ-aminolevulinic acid hydrochloride]
- temperature at which it is completely degraded [1]: ≥ 156 °C

Compound: NCC(=O)CCC(=O)O.O=P(O)(O)O [δ-aminolevulinic acid phosphate]
- stimulative nature against the skin and tongue [2]: low stimulative nature against the skin and tongue
- permeability through the skin and the like [3]: excellent
